According to ChEMBL document CHEMBL1143699, “Chemical and biological effects of substitution of the 2-position of ring-expanded ('fat') nucleosides containing the imidazo[4,5-e][1,3]diazepine-4,8-dione ring system: the role of electronic and steric factors on glycosidic bond stability and anti-HCV activity” (Bioorg Med Chem, 2007):

What was measured:
[1] = Cytotoxicity against Huh7 cells relative to control; assay type: cell-based; details: human, huh-7
Hepatitis C virus = assay: Antiviral activity against Hepatitis C virus infected Huh7 cells assessed as RNA replicon; assay type: functional, Hepacivirus hominis, Huh-7

Nc1nc(=O)c2nc(-c3ccc(F)cc3)n([C@@H]3O[C@H](CO)[C@@H](O)[C@H]3O)c2c(=O)[nH]1
Activity [1]: 108.6% | Inhibition (Hepatitis C virus): 0%

COc1cccc(-c2nc3c(=O)nc(N)[nH]c(=O)c3n2[C@@H]2O[C@H](CO)[C@@H](O)[C@H]2O)c1
Activity [1]: 97.2% | Inhibition (Hepatitis C virus): 31.8%

COc1ccc(-c2nc3c(=O)nc(N)[nH]c(=O)c3n2[C@@H]2O[C@H](CO)[C@@H](O)[C@H]2O)cc1
Activity [1]: 109.8% | Inhibition (Hepatitis C virus): 9.5%
